Literature values as cited in US12173009B2, “Diamine derivatives as inhibitors of leukotriene A4 hydrolase” (CELLTAXIS, LLC, priority 2005, dated 2024).
pKd: −log10 of the molar value.

Experiments:
[1] = system: lower affinity LTB4 receptors on neutrophils; conditions: additional lower affinity receptors on neutrophils
BLT1 = conditions: Human BLT1 and its mouse, rat and guinea pig orthologues
Human BLT2 = target: T1, Human BLT2 (Homo sapiens, UniProt Q9NPC1); conditions: Human BLT2 versus BLT1
T1 sequence (Q9NPC1 1-358): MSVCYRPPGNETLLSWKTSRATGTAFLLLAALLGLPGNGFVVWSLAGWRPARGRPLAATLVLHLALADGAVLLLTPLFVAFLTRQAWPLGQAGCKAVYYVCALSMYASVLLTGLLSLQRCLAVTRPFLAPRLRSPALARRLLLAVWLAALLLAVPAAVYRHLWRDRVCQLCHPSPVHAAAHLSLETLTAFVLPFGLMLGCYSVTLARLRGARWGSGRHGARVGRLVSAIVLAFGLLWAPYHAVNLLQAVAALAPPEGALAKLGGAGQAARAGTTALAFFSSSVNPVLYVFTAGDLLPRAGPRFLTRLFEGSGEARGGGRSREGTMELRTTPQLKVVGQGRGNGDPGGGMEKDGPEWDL

spontaneous colitis = conditions: eight weeks of treatment; cotton top tamarins
LTA4-h [2] = target: T2, LTA4-h (Mus musculus, UniProt P24527); conditions: oral administration; mouse blood ex vivo
T2 construct: host or cells: mouse blood (endogenous enzyme)
T2 sequence (P24527 1-611): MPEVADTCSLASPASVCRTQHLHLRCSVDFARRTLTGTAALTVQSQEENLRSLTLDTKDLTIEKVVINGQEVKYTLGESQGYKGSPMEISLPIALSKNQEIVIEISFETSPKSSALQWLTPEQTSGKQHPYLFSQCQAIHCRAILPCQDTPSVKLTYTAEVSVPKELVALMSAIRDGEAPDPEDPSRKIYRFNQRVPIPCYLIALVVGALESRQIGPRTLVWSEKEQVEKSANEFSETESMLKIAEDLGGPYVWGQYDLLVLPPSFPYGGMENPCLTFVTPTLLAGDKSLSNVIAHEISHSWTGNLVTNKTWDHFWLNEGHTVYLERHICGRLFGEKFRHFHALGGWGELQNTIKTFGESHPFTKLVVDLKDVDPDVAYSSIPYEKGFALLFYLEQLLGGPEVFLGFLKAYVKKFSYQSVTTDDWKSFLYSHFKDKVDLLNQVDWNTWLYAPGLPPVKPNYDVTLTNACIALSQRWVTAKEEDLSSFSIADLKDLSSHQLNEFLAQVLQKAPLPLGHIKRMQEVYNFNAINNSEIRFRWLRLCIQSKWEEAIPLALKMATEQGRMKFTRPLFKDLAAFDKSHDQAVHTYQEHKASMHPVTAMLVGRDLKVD

LTA4-h [3] = target: T3, LTA4-h (Rattus norvegicus, UniProt P30349); conditions: oral administration; rat peritoneum in vivo
T3 construct: host or cells: rat peritoneum (endogenous enzyme)
T3 sequence (P30349 1-611): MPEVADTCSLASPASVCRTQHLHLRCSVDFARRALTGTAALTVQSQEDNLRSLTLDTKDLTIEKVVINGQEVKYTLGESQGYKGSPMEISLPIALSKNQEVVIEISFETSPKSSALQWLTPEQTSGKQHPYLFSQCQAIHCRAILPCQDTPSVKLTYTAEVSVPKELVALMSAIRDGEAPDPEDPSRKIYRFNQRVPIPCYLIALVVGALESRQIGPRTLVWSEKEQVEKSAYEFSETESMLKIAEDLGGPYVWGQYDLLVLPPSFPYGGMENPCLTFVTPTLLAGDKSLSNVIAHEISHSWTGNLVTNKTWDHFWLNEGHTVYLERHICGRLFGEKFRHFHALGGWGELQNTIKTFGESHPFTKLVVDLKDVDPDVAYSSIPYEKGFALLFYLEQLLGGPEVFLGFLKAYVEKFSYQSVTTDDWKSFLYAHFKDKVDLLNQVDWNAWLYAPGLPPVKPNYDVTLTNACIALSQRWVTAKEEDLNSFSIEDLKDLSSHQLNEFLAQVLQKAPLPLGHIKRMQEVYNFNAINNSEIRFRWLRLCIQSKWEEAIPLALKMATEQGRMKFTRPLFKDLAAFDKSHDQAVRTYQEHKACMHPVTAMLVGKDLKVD

Row | ionophore-induced LTB4 production (LTA4-h [2]) | ionophore-induced LTB4 production (LTA4-h [3]) | SMILES | pKd [1] | pKd (BLT1) | lower affinity of BLT2 for LTB4 than BLT1 (Human BLT2) | colitis symptoms (spontaneous colitis)
1 | – | – | CCCCC/C=C\C[C@@H](O)/C=C/C=C/C=C\[C@@H](O)CCCC(=O)O [LTB4, Leukotriene B4] | < 7.22 | 9.15 to 10.00 | 20 fold | –
2 | caused inhibition | caused inhibition | CN(CCCOc1ccc(Cc2ccccc2)cc1)CCC(=O)O.Cl [SC57461] | – | – | – | significantly improved colitis symptoms
